Values of other authors as cited in patent publication US11759504B2, “PTH compounds with low peak-to-trough ratios” (Ascendis Pharma Bone Diseases A/S, priority 2016, dated 2023).
Where two headings read alike, the source gives them in different places.

Legend:
[1] = not given; remark: listed apart in the source

Row | Molecule | osteosarcoma rate (rats, daily injections) | patients who developed hypercalcemia at one or more measurements during a 24-hour period ([1]; human, in vivo) [%] | urinary calcium excretion ([1]; over the 24-hour period after injection) | treated participants who achieved normal blood calcium levels on reduced doses of calcium supplements and active forms of vitamin D ([1]; pivotal trial, once-daily sc) [%] | osteosarcoma rate (rat, in vivo)
1 | CC[C@H](C)[C@H](NC(=O)[C@H](CCC(=O)O)NC(=O)[C@H](CO)NC(=O)[C@@H](NC(=O)[C@@H](N)CO)C(C)C)C(=O)N[C@@H](CCC(N)=O)C(=O)N[C@@H](CC(C)C)C(=O)N[C@@H](CCSC)C(=O)N[C@@H](Cc1cnc[nH]1)C(=O)N[C@@H](CC(N)=O)C(=O)N[C@@H](CC(C)C)C(=O)NCC(=O)N[C@@H](CCCCN)C(=O)N[C@@H](Cc1cnc[nH]1)C(=O)N[C@@H](CC(C)C)C(=O)N[C@@H](CC(N)=O)C(=O)N[C@@H](CO)C(=O)N[C@@H](CCSC)C(=O)N[C@@H](CCC(=O)O)C(=O)N[C@@H](CCCN=C(N)N)C(=O)N[C@H](C(=O)N[C@@H](CCC(=O)O)C(=O)N[C@@H](Cc1c[nH]c2ccccc12)C(=O)N[C@@H](CC(C)C)C(=O)N[C@@H](CCCN=C(N)N)C(=O)N[C@@H](CCCCN)C(=O)N[C@@H](CCCCN)C(=O)N[C@@H](CC(C)C)C(=O)N[C@@H](CCC(N)=O)C(=O)N[C@@H](CC(=O)O)C(=O)N[C@H](C(=O)N[C@@H](Cc1cnc[nH]1)C(=O)N[C@@H](CC(N)=O)C(=O)N[C@@H](Cc1ccccc1)C(=O)O)C(C)C)C(C)C [Forteo] | dose dependent increase in osteosarcoma rate |  |  |  | 
2 | Natpara: PTH(1-84), approved 2015 for once-daily subcutaneous injection as adjunct to vitamin D and calcium in hypoparathyroidism |  | 71 | did not change | 42 | dose dependent increase in osteosarcoma rate
